From article PMC3466212, “Novel AChE Inhibitors for Sustainable Insecticide Resistance Management” (PLoS ONE, 2012)
Where two headings read alike, the source gives them in different places.

What was measured:
[1] = system: C. pipiens Slab strain larvae; test: Larval bioassay, Slab strain (OP-susceptible); details: for LD50 Slab: C. pipiens OP-susceptible ace-1 S/S larvae, four to five replicates; for Mortality at 300 µM, Slab: fourth-instar larvae, 24 hours exposure
From the text: (§1) Three C. pipiens strains were used: the susceptible reference Slab strain, homozygous for ace-1 ^S [39], the resistant reference SR strain, carrying the genetical background of Slab but homozygous for the G119S mutation, allele ace-1 ^R [21] and the Ducos strain, carrying the genetical background of Slab but homozygous for an ace-1 duplication, with one ace-1^S and ace-1^R copy in tandem. Culex pipiens heterozygous larvae (Slab×SR) were obtained by crossing Slab males and SR females. Two A. gambiae reference strains (S molecular form) were used: the susceptible strain Kisumu, homozygous for ace-1 ^S, collected in Kenya in 1953 and maintained since then under laboratory conditions and the resistant Acerkis strain, carrying the genetical background of Kisumu but homozygous for an ace-1^R allele from a population collected in Bobo-Dioulasso, Burkina Faso [41].
(§2) Insecticidal activity was determined by performing bioassays on fourth-instar larvae as described in [42]. Each compound was dissolved in ethanol. Propoxur (CX) and chlorpyrifos (OP) were used as references. For each compound, we first tested mortality after a 24-hour exposure at 300 µM. […] Mortality data were analyzed by the log-probit program. This program takes into account natural mortality and provides lethal doses (LD) and slopes for each mortality line; it also computes resistance ratios (RR) for each LD, with 95% confidence intervals.

[2] = system: A. gambiae Kisumu strain larvae; test: Larval bioassay, Kisumu strain (OP-susceptible); type: in vivo, Anopheles gambiae; details: A. gambiae OP-susceptible ace-1 S/S larvae
From the text: as §1, §2

[3] = system: C. pipiens SR strain larvae; test: Larval bioassay, SR strain (OP-resistant); details: for LD50 SR: C. pipiens OP-resistant ace-1 R/R larvae; for Mortality at 300 µM, SR: fourth-instar larvae, 24 hours exposure
From the text: Three C. pipiens strains were used: the susceptible reference Slab strain, homozygous for ace-1 ^S [39], the resistant reference SR strain, carrying the genetical background of Slab but homozygous for the G119S mutation, allele ace-1 ^R [21] and the Ducos strain, carrying the genetical background of Slab but homozygous for an ace-1 duplication, with one ace-1^S and ace-1^R copy in tandem. Culex pipiens heterozygous larvae (Slab×SR) were obtained by crossing Slab males and SR females.
Insecticidal activity was determined by performing bioassays on fourth-instar larvae as described in [42]. Each compound was dissolved in ethanol. Propoxur (CX) and chlorpyrifos (OP) were used as references. For each compound, we first tested mortality after a 24-hour exposure at 300 µM. […] Mortality data were analyzed by the log-probit program.

[4] = system: C. pipiens F1 (SR×Slab) heterozygous larvae; test: Larval bioassay, heterozygous F1 (SR×Slab); type: in vivo, Culex pipiens; details: C. pipiens heterozygous ace-1 R/ace-1 S larvae
From the text: as §1, §2

[5] = system: A. gambiae Acerkis strain larvae; test: Larval bioassay, Acerkis strain (OP-resistant); type: in vivo, Anopheles gambiae; details: A. gambiae OP-resistant ace-1 R/R larvae
From the text: as §1, §2

[6] = system: C. pipiens Ducos strain larvae; test: Larval bioassay, Ducos strain (ace-1 duplication); type: in vivo, Culex pipiens; details: C. pipiens OP-resistant ace-1 D (duplication) larvae
From the text: as §1, §2

[7] = target: T1, WT AChE1 (Culex pipiens, UniProt Q86GC8); details: read-out: Kic WT; dissociation constant of enzyme-inhibitor complex; five independent replicates
Method: (§3) To identify inhibitors of G119S AChE1, we screened a 3,000-compound chemical library using an assay adapted to a microplate format, [26]. […] For simplification, these compounds will be termed from now as PTF (PyrimidineTrione Furan-substituted) and were classified depending on the substituted positions (Table S1).
(§4) WT and G119S recombinant AChE1s were incubated with 0.25 mM, 0.5 mM or 1 mM inhibitor. Residual activity of G119S (A and C) and WT (B and D) AChE1 was measured in the presence of various concentrations of PTF-20 and substrates. Enzymatic activity was analyzed using the graphical method developed by Dixon, representing reciprocal rates (1/v) (A and B) or reciprocal rates multiplied by substrate concentrations ([S]/v) (C and D) as a function of inhibitor concentration. (PDF) Click here for additional data file.
(§5) Table S3. Dissociation constants (Kic) of enzyme-inhibitor complexes.
(§6) a numbers refer to Table S1
(§7) b data were measured from five independent replicates.
(§8) c competitive inhibitor reference

[8] = target: T1, WT AChE1; test: AChE assay (Ellman), dose-response on recombinant WT AChE1; type: biochemical; design: made in house; host or cells: Drosophila S2 cells
Method: (§9) Production of C. pipiens WT and mutated AChE1s in Drosophila S2 cells was already described. The chemical library (ChemBridge, 3,000 compounds) screening was performed in duplicate on G119S recombinant AChE1. Chemicals were made soluble in ethanol or dimethylsulphoxide (DMSO), and then diluted at 300 µM in ethanol for storage. Compounds (30 µM final concentration) were incubated for 15 min at room temperature with 100 µl of G119S recombinant AChE1 then 100 µl of substrate (acetylthiocholine, 1.6 mM, Sigma-Aldrich) was added and the residual activity was quantified by measuring the optical density at 412 nm, as described by Ellman et al.. PTF analogs were analyzed in dose-response experiments (10-fold serial dilutions from 3 mM to 30 nM), using recombinant WT and G119S AChE1 or mosquito head extracts (heads cut from frozen mosquitoes, homogenized in 400 µl PB containing 1% Triton X-100 and cleared by centrifugation at 9,000×g for 3 min). Depending on compound availability, two to five replicates were performed with distinct batches of enzyme. […] IC50 was estimated by nonlinear least square regression. IC50 was also measured on AChE1 from susceptible and resistant mosquito larvae extracts.

[9] = target: T2, F290V AChE1 (Culex pipiens, UniProt Q86GC8, F416V); type: biochemical; details: F290V OP-insensitive AChE1
T2 construct: made in house; host or cells: Drosophila S2 cells
Method: as §9, §6
(§10) b IC50 values were determined from regression analysis of log-concentrations versus

[10] = target: T3, F331W AChE1 (Culex pipiens, UniProt Q86GC8, F457W); type: biochemical; details: F331W OP-insensitive AChE1
T3 construct: made in house; host or cells: Drosophila S2 cells
Method: as §9, §6, §10

[11] = target: T4, G119S AChE1 (Culex pipiens, UniProt Q86GC8, G247S); type: biochemical; details: dissociation constant of enzyme-inhibitor complex; five independent replicates; read-out: Kic G119S
T4 construct: made in house; host or cells: Drosophila S2 cells
Method: as §3
Reversibility was tested using a rapid dilution procedure. Residual activity of WT (white bars) and G119S (grey bars) AChE1 were measured after 15 min incubation in presence of inhibitors (striped bars) and are expressed as percentages of control activity. […] Assays were then diluted ten times and residual activity was measured (open bars). Means and standard errors for three independent experiments are shown. (PDF) Click here for additional data file.
as §4, §5, §6, §7, §8

[12] = target: T4, G119S AChE1; test: biochemical; type: biochemical
Method: as §9, with “Compounds (30 µM final concentration) were incubated for 15 min at room temperature with 100 µl of G119S recombinant AChE1 then 100 µl of substrate (acetylthiocholine, 1.6 mM, Sigma-Aldrich) was added and the residual activity was quantified by measuring the optical density at 412 nm, as described by Ellman et al..” left out

[13] = recombinant wild-type C. pipiens AChE1, 15 min incubation, acetylthiocholine, read-out: IC50 WT
[14] = recombinant OP-insensitive G119S C. pipiens AChE1, 15 min incubation, acetylthiocholine, read-out: IC50 G119S

| Compound | LD50 Slab [1] | LD50 Kisumu [2] | LD50 SR [3] | LD50 F1 (SR×Slab) [4] | LD50 Acerkis [5] | LD50 Ducos [6] | Ki [7] | Mortality at 300 µM, Slab [1] | IC50 [8, 13] | Mortality at 300 µM, SR [3] | IC50 [9] | IC50 [10] | Ki [11] | IC50 [12, 14] | mortality at 300 µM ([1]; Culex pipiens, 24 h, read-out: Mortality at 300 µM, Slab) | IC50 [8] | mortality at 300 µM ([3]; Culex pipiens, 24 h, read-out: Mortality at 300 µM, SR) | IC50 [12] |
| --- | --- | --- | --- | --- | --- | --- | --- | --- | --- | --- | --- | --- | --- | --- | --- | --- | --- | --- |
| CCOP(=S)(OCC)Oc1nc(Cl)c(Cl)cc1Cl [Chlorpyrifos, reference compound] | 0.00019 µM | 0.00095 µM | 0.021 µM | 0.0015 µM | 0.6 µM | 0.0022 µM |  |  |  |  |  |  |  |  |  |  |  |  |
| Cc1ccc(C=C2C(=O)NC(=O)N(c3ccccc3)C2=O)o1 [PTF-3] | 310.0 µM | 109.7 µM | 143.0 µM | 151.3 µM | 86.6 µM | 162.1 µM | 127 ± 2.8 µM | 43% | 29.4 µM | 78% | 12.4 µM | 17.8 µM | 21.8 ± 1.9 µM | 6.2 µM |  |  |  |  |
| COc1ccc(N2C(=O)NC(=O)C(=Cc3ccc(C)o3)C2=O)cc1 [PTF-10] | 300.0 µM | 388.3 µM | 206.0 µM | 207.1 µM | 50.6 µM | 232.8 µM | 88.2 ± 4.2 µM | 14% | 592 µM | 87% | 85.9 µM | 88.2 µM | 64.5 ± 1.8 µM | 81.4 µM |  |  |  |  |
| Cc1ccc(C=C2C(=O)NC(=O)N(c3ccc(Cl)cc3)C2=O)o1 [PTF-20] | 762.0 µM |  | 194.0 µM |  |  |  | 56.1 ± 1.8 µM | 43% | 330 µM | 94% | 14.5 µM | 8.3 µM | 5.6 ± 0.1 µM | 27.5 µM |  |  |  |  |
| Cc1cccc(N2C(=O)C(=Cc3ccc(C)o3)C(=O)NC2=S)c1 [PTF-25] | 160.8 µM | 46.1 µM | 70.1 µM | 60.0 µM | 12.6 µM | 130.8 µM | 131 ± 3.1 µM | 32% | 442 µM | 68% | 39.3 µM | 31.9 µM | 24.9 ± 0.6 µM | 28.6 µM |  |  |  |  |
| COc1cccc(N2C(=O)C(=Cc3ccc(C)o3)C(=O)NC2=S)c1 [PTF-29] | 946.0 µM | 164.4 µM | 398.8 µM | 105.1 µM | 67.7 µM | 409.0 µM | 17.1 ± 6.8 µM | 27% | 118 µM | 63% | 37.4 µM | 11.2 µM | 8.9 ± 2.7 µM | 33.5 µM |  |  |  |  |
| Cc1ccc(C=C2C(=O)N(C)C(=O)N(C)C2=O)o1 [PTF-39] | 576.0 µM |  | 200.0 µM | 110.0 µM |  | 201.9 µM | 130 ± 9.2 µM | 29% | 74.3 µM | 81% | 13.9 µM | 8.7 µM | 41.9 ± 2.3 µM | 7.6 µM |  |  |  |  |
| CNC(=O)Oc1ccccc1OC(C)C [Propoxur, reference compound] | 1.6 µM | 0.1 µM | 2100 µM | 2.3 µM | 689.6 µM | 56.7 µM |  |  |  |  |  |  |  |  | 100% | 0.3 µM | 0% | 26500 µM |
